Legend:
Format in all cases: functional, cell-based
SK-N-SH = test: Antiproliferative activity against human SK-N-SH cells after 72 hrs by MTT assay
MGC-803 = test: Antiproliferative activity against human MGC803 cells after 72 hrs by MTT assay; details: MGC-803, 72 h
HepG2 = test: Antiproliferative activity against human HepG2 cells after 72 hrs by MTT assay; details: HepG2, 72 h

Row | Structure (SMILES) | IC50 (SK-N-SH) [µM] | IC50 (MGC-803) [µM] | IC50 (HepG2) [µM]
1 | Nc1ccc(C(=O)/C=C/c2cccs2)cc1 | > 64 | > 64 | > 64
2 | O=C(/C=C/c1ccccc1F)c1ccc(OCc2cn(Cc3ccccc3)nn2)cc1 | 28.6 | 50.6 | 18.4
3 | COc1cc(OC)c(/C=C/C(=O)c2ccc(NCc3cn(Cc4ccccc4)nn3)cc2)c(OC)c1 | 6.26 | 6.26 | 10.4
4 | O=C(/C=C/c1cc(Cl)cc(Cl)c1)c1ccc(NCc2cn(Cc3ccccc3)nn2)cc1 | 20.5 | 16.8 | 23.4
5 | O=C(/C=C/c1ccc(Cl)cc1Cl)c1ccc(OCc2cn(Cc3ccccc3)nn2)cc1 | 36.4 | > 64 | 27.9
6 | O=C(/C=C/c1ccc([N+](=O)[O-])cc1)c1ccc(OCc2cn(Cc3ccccc3)nn2)cc1 | 11.6 | 29.8 | 24.4
7 | Nc1ccc(C(=O)/C=C/c2ccco2)cc1 | 48.9 | > 64 | > 64
8 | Nc1ccc(C(=O)/C=C/c2ccc(Cl)cc2)cc1 | 58.2 | 61.2 | 55.6
9 | O=C(/C=C/c1cccnc1)c1ccc(OCc2cn(Cc3ccccc3)nn2)cc1 | 6.37 | 10.2 | 5.22
10 | O=C(/C=C/c1ccc(Cl)cc1)c1ccc(OCc2cn(Cc3ccccc3)nn2)cc1 | 17.5 | 43.2 | 21
11 | O=C(/C=C/c1cccnc1)c1ccc(NCc2cn(Cc3ccc(C(F)(F)F)cc3)nn2)cc1 | 7.26 | 7.19 | 9.24
12 | O=C(/C=C/c1ccncc1)c1ccc(NCc2cn(Cc3ccccc3)nn2)cc1 | 5.23 | 17.1 | 7.02
13 | COc1ccc(/C=C/C(=O)c2ccc(OCc3cn(Cc4ccccc4)nn3)cc2)c(OC)c1OC | 14.5 | 37.2 | 9.35
14 | COc1ccccc1/C=C/C(=O)c1ccc(OCc2cn(Cc3ccccc3)nn2)cc1 | 26.7 | > 64 | 24.8

Reference: ChEMBL document CHEMBL4431295 (Medchemcomm, 2016)
